Test results as given in PMC2639596, “Antimicrobial peptides effectively kill a broad spectrum of Listeria monocytogenes and Staphylococcus aureus strains independently of origin, sub-type, or virulence factor expression” (BMC Microbiology, 2008).
Like-named read-outs stand apart in the source and are kept apart here.

How the values were obtained:
[1] = test system: Staphylococcus aureus; details: for MIC (MEC): radial diffusion, MHB/1% agarose, overnight, 37°C
Procedure: (§1) The MEC of HBD-3 was assayed on a sub-selection of strains using a radial diffusion assay with some modifications. In brief, MHB/1% agarose was supplemented with glucose to an end-concentration of 0.1% (w/V) to enhance the growth of L. monocytogenes and improve the visualization of the inhibition zones. […] Following solidification on a leveling table, 1 mm wells were punched with a Pasteur pipette. Two-fold dilutions of HBD-3 were prepared in 0.01% acetic acid/0.1% bovine serum albumin to a concentration range of 0.25–256 μg/ml and 2 μl was added to each well. […] Each strain was tested in two independent trials.
(§2) The bacteria were prepared and mixed with MHB/1% agarose as described above and 50 ml gel was poured into 140 mm Petri dishes. The gel was allowed to solidify and 3 mm wells were punched. […] The plates were incubated overnight at 37°C and the MEC was read as described above.

[2] = test system: Listeria monocytogenes; details: for MIC (MEC): radial diffusion, MHB/1% agarose, overnight, 37°C
Procedure: as §1, §2

OO [hydrogen peroxide]
MEC values against S. aureus (range over strains) [1]: 0.12–0.47 % (V/V)
MIC (MEC) ([1]; strain ΔdltA (Sa113 dltA ins)): 0.23 % (V/V)
MIC (MEC) ([1]; strain ΔmprF (Sa113 mprF del)): 0.12 % (V/V)
MEC values against L. monocytogenes (range over strains) ([2]; radial diffusion assay, all strains tested): 0.12–0.94 % (V/V)
MIC (MEC) ([2]; strain 2275 (EGD dps del)): 0.94 % (V/V)
MIC (MEC) ([2]; strain 2307 (EGD resD del)): 0.12 % (V/V)
MIC (MEC) ([2]; strain 2315 (EGD sigB del)): 0.94 % (V/V)
MIC (MEC) ([2]; strain 2317 (EGD prfA del)): 0.94 % (V/V)
MIC (MEC) ([2]; strain 2374 (EGD perR ins)): 0.94 % (V/V)
MIC (MEC) ([2]; strain 2375 (EGD perR del)): 0.94 % (V/V)
MIC (MEC) ([2]; strain 4239): 0.23 % (V/V)
MIC (MEC) ([2]; strain 4446): 0.47 % (V/V)
MIC (MEC) ([2]; strain 4459): 0.23 % (V/V)
MIC (MEC) ([2]; strain 4666): 0.18 % (V/V)
MIC (MEC) ([2]; strain 6895): 0.35 % (V/V)
MIC (MEC) ([2]; strain 7291): 0.47 % (V/V)
MIC (MEC) ([2]; strain 7418): 0.18 % (V/V)
MIC (MEC) ([2]; strain EGD (wildtype)): 0.47 % (V/V)
MIC (MEC) ([2]; strain H13-1): 0.94 % (V/V)
MIC (MEC) ([2]; strain LO28 (wildtype)): 0.47 % (V/V)
MIC (MEC) ([2]; strain La22): 0.23 % (V/V)
MIC (MEC) ([2]; strain La111): 0.94 % (V/V)
MIC (MEC) ([2]; strain M103-1): 0.94 % (V/V)
MIC (MEC) ([2]; strain N53-1): 0.47 % (V/V)
MIC (MEC) ([2]; strain No40-1): 0.47 % (V/V)
MIC (MEC) ([2]; strain O57): 0.47 % (V/V)
MIC (MEC) ([2]; strain R479a): 0.47 % (V/V)
MIC (MEC) ([2]; strain V518a): 0.94 % (V/V)
